Assay results taken from patent publication US5358951A, “Angiotensin II receptor blocking 2, 3, 6 substituted quinazolinones” (American Cyanamid Company, priority 1993, dated 1994).

System: vasopressor response of angiotensin II
Test: AII Challenge: antagonism of angiotensin II vasopressor response;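 on Response Average Change: post-dose Angiotensin II-evoked rise in systolic blood pressure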
Assay type: in vivo
Settings: for inhibition in vivo at 1 mg/kg / inhibition in vivo at 5 mg/kg: Rattus norvegicus; for inhibition in vivo at 1 mg/kg: iv; for inhibition in vivo at 5 mg/kg: po
How it was run: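 Conscious male SHR (16-20 weeks) with aortic and caval cannulae received angiotensin II at 0.05 and 0.1 ug/kg i.v. before and 30-300 min after compound dosing (i.v., i.p. or oral). Blockade is expressed as % of each rat's predose rise in systolic pressure.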

[1] = 1 mg/kg i.v., AII 0.05 mcg/kg IV, 30 min post dose
[2] = 1 mg/kg i.v., AII 0.05 mcg/kg IV, 60 min post dose
[3] = 1 mg/kg i.v., AII 0.05 mcg/kg IV, 90 min post dose
[4] = 1 mg/kg i.v., AII 0.05 mcg/kg IV, 120 min post dose
[5] = 1 mg/kg i.v., AII 0.05 mcg/kg IV, 180 min post dose
[6] = 1 mg/kg i.v., AII 0.05 mcg/kg IV, 240 min post dose
[7] = 1 mg/kg i.v., AII 0.05 mcg/kg IV, 300 min post dose
[8] = 1 mg/kg i.v., AII 0.1 mcg/kg IV, 30 min post dose
[9] = 1 mg/kg i.v., AII 0.1 mcg/kg IV, 60 min post dose
[10] = 1 mg/kg i.v., AII 0.1 mcg/kg IV, 90 min post dose
[11] = 1 mg/kg i.v., AII 0.1 mcg/kg IV, 120 min post dose
[12] = 1 mg/kg i.v., AII 0.1 mcg/kg IV, 180 min post dose
[13] = 1 mg/kg i.v., AII 0.1 mcg/kg IV, 240 min post dose
[14] = 1 mg/kg i.v., AII 0.1 mcg/kg IV, 300 min post dose
[15] = 0.5 h, 1 mg/kg i.v., AII 0.05 mcg/kg IV, 30 min post dose
[16] = 0.5 h, 1 mg/kg i.v., AII 0.1 mcg/kg IV, 30 min post dose
[17] = 1 h, 1 mg/kg i.v., AII 0.05 mcg/kg IV, 60 min post dose
[18] = 1 h, 1 mg/kg i.v., AII 0.1 mcg/kg IV, 60 min post dose
[19] = 2 h, 1 mg/kg i.v., AII 0.05 mcg/kg IV, 120 min post dose
[20] = 2 h, 1 mg/kg i.v., AII 0.1 mcg/kg IV, 120 min post dose
[21] = 3 h, 1 mg/kg i.v., AII 0.05 mcg/kg IV, 180 min post dose
[22] = 3 h, 1 mg/kg i.v., AII 0.1 mcg/kg IV, 180 min post dose
[23] = 4 h, 1 mg/kg i.v., AII 0.05 mcg/kg IV, 240 min post dose
[24] = 4 h, 1 mg/kg i.v., AII 0.1 mcg/kg IV, 240 min post dose
[25] = 5 h, 1 mg/kg i.v., AII 0.05 mcg/kg IV, 300 min post dose
[26] = 5 h, 1 mg/kg i.v., AII 0.1 mcg/kg IV, 300 min post dose
[27] = […], 1 mg/kg i.v., AII 0.05 mcg/kg IV, 90 min post dose
[28] = […], 1 mg/kg i.v., AII 0.1 mcg/kg IV, 90 min post dose

CCCCc1nc2ccc([C@@]3(C)C[C@@H]4CCC(C)(C)N4O3)cc2c(=O)n1Cc1ccc(-c2ccccc2-c2nnn[nH]2)cc1 (relative stereo) [Example 66, Cis-2-Butyl-6-(hexahydro-2,6,6-trimethylpyrrolo[1,2-b]isoxazol-2-yl)-3-[[2'-(1H-tetrazol-5-yl)[1,1'-biphenyl]-4-yl]methyl]-4(3H)-quinazolinone]
Response Average Change [1]: 2.5 mmHg | Response Average Change [2]: 0 mmHg | Response Average Change [3]: 9 mmHg | Response Average Change [4]: 11.5 mmHg | Response Average Change [5]: 15 mmHg | Response Average Change [6]: 12.5 mmHg | Response Average Change [7]: 20 mmHg | Response Average Change [8]: 5 mmHg | Response Average Change [9]: 2.5 mmHg | Response Average Change [10]: 7.5 mmHg | Response Average Change [11]: 7.5 mmHg | Response Average Change [12]: 14 mmHg | Response Average Change [13]: 14 mmHg | Response Average Change [14]: 17.5 mmHg | Response Average Change (5 mg/kg P.O., AII 0.05 mcg/kg IV, 30 min post dose): 10 mmHg | Response Average Change (5 mg/kg P.O., AII 0.05 mcg/kg IV, 60 min post dose): 7.5 mmHg | Response Average Change (5 mg/kg P.O., AII 0.05 mcg/kg IV, 90 min post dose): 3 mmHg | Response Average Change (5 mg/kg P.O., AII 0.05 mcg/kg IV, 120 min post dose): 7.5 mmHg | Response Average Change (5 mg/kg P.O., AII 0.05 mcg/kg IV, 180 min post dose): 5 mmHg | Response Average Change (5 mg/kg P.O., AII 0.05 mcg/kg IV, 240 min post dose): 5 mmHg | Response Average Change (5 mg/kg P.O., AII 0.05 mcg/kg IV, 300 min post dose): 10 mmHg | Response Average Change (5 mg/kg P.O., AII 0.1 mcg/kg IV, 30 min post dose): 21 mmHg | Response Average Change (5 mg/kg P.O., AII 0.1 mcg/kg IV, 60 min post dose): 17.5 mmHg | Response Average Change (5 mg/kg P.O., AII 0.1 mcg/kg IV, 90 min post dose): 2.5 mmHg | Response Average Change (5 mg/kg P.O., AII 0.1 mcg/kg IV, 120 min post dose): 7.5 mmHg | Response Average Change (5 mg/kg P.O., AII 0.1 mcg/kg IV, 180 min post dose): 12.5 mmHg | Response Average Change (5 mg/kg P.O., AII 0.1 mcg/kg IV, 240 min post dose): 10 mmHg | Response Average Change (5 mg/kg P.O., AII 0.1 mcg/kg IV, 300 min post dose): 10 mmHg | inhibition in vivo at 1 mg/kg [15]: 93% | inhibition in vivo at 1 mg/kg [16]: 89% | inhibition in vivo at 1 mg/kg [17]: 100% | inhibition in vivo at 1 mg/kg [18]: 94% | inhibition in vivo at 1 mg/kg [19]: 69% | inhibition in vivo at 1 mg/kg [20]: 83% | inhibition in vivo at 1 mg/kg [21]: 60% | inhibition in vivo at 1 mg/kg [22]: 68% | inhibition in vivo at 1 mg/kg [23]: 67% | inhibition in vivo at 1 mg/kg [24]: 68% | inhibition in vivo at 1 mg/kg [25]: 47% | inhibition in vivo at 1 mg/kg [26]: 60% | inhibition in vivo at 1 mg/kg [27]: 76% | inhibition in vivo at 1 mg/kg [28]: 83% | inhibition in vivo at 5 mg/kg (0.5 h, 5 mg/kg P.O., AII 0.05 mcg/kg IV, 30 min post dose): 77% | inhibition in vivo at 5 mg/kg (0.5 h, 5 mg/kg P.O., AII 0.1 mcg/kg IV, 30 min post dose): 52% | inhibition in vivo at 5 mg/kg (1 h, 5 mg/kg P.O., AII 0.05 mcg/kg IV, 60 min post dose): 83% | inhibition in vivo at 5 mg/kg (1 h, 5 mg/kg P.O., AII 0.1 mcg/kg IV, 60 min post dose): 60% | inhibition in vivo at 5 mg/kg (2 h, 5 mg/kg P.O., AII 0.05 mcg/kg IV, 120 min post dose): 83% | inhibition in vivo at 5 mg/kg (2 h, 5 mg/kg P.O., AII 0.1 mcg/kg IV, 120 min post dose): 83% | inhibition in vivo at 5 mg/kg (3 h, 5 mg/kg P.O., AII 0.05 mcg/kg IV, 180 min post dose): 89% | inhibition in vivo at 5 mg/kg (3 h, 5 mg/kg P.O., AII 0.1 mcg/kg IV, 180 min post dose): 72% | inhibition in vivo at 5 mg/kg (4 h, 5 mg/kg P.O., AII 0.05 mcg/kg IV, 240 min post dose): 89% | inhibition in vivo at 5 mg/kg (4 h, 5 mg/kg P.O., AII 0.1 mcg/kg IV, 240 min post dose): 77% | inhibition in vivo at 5 mg/kg (5 h, 5 mg/kg P.O., AII 0.05 mcg/kg IV, 300 min post dose): 77% | inhibition in vivo at 5 mg/kg (5 h, 5 mg/kg P.O., AII 0.1 mcg/kg IV, 300 min post dose): 77% | inhibition in vivo at 5 mg/kg ([…], 5 mg/kg P.O., AII 0.05 mcg/kg IV, 90 min post dose): 93% | inhibition in vivo at 5 mg/kg ([…], 5 mg/kg P.O., AII 0.1 mcg/kg IV, 90 min post dose): 94%

CCCCc1nc2ccc([C@@]3(CC)C[C@@H]4CCCN4O3)cc2c(=O)n1Cc1ccc(-c2ccccc2-c2nnn[nH]2)cc1 (relative stereo) [Example 71, Cis-2-butyl-6-(2-ethylhexahydropyrrolo[1,2b]isoxazol-2-yl)-3-[[2'-[1-(1H-tetrazol-5-yl)][1,1'-biphenyl]-4-yl]methyl]-4(3H)-quinazolinone]
Response Average Change [1]: 20 mmHg | Response Average Change [2]: 5 mmHg | Response Average Change [3]: 30 mmHg | Response Average Change [4]: 15 mmHg | Response Average Change [5]: 15 mmHg | Response Average Change [6]: 15 mmHg | Response Average Change [7]: 20 mmHg | Response Average Change [8]: 15 mmHg | Response Average Change [9]: 15 mmHg | Response Average Change [10]: 20 mmHg | Response Average Change [11]: 10 mmHg | Response Average Change [12]: 15 mmHg | Response Average Change [13]: 22.5 mmHg | Response Average Change [14]: 23.5 mmHg | inhibition in vivo at 1 mg/kg [15]: 53% | inhibition in vivo at 1 mg/kg [16]: 60% | inhibition in vivo at 1 mg/kg [17]: 88% | inhibition in vivo at 1 mg/kg [18]: 60% | inhibition in vivo at 1 mg/kg [19]: 65% | inhibition in vivo at 1 mg/kg [20]: 73% | inhibition in vivo at 1 mg/kg [21]: 65% | inhibition in vivo at 1 mg/kg [22]: 60% | inhibition in vivo at 1 mg/kg [23]: 65% | inhibition in vivo at 1 mg/kg [24]: 40% | inhibition in vivo at 1 mg/kg [25]: 53% | inhibition in vivo at 1 mg/kg [26]: 37% | inhibition in vivo at 1 mg/kg [27]: 29% | inhibition in vivo at 1 mg/kg [28]: 47%
